Data as given in paper PMC10412585 (Nature Communications, 2023).

Key:
[1] = system: NKG2C+ NK cells; experiment: NK cell activation assay with peptide-pulsed RMA-S/HLA-E cells; format: cell-based, human; details: RMA-S/HLA-E target cells, 300 µM peptide ([…] µM BFAR263-271), E:T 2:1, 6 h, flow cytometry, n = 3 (n = 2 for some) donors
Description: Fig. 4 NK cell stimulation assays. Assessment of effects of peptides on NK cell activity through incubation of NK cells, peptides, and (A) K562/HLA-E or (B) RMA-S/HLA-E target cells. […] Replicates for individual peptides are from different donors, with solid black lines indicating mean values. […] Representative gating for NKG2A^+/NKG2C^- and NKG2A^-/NKG2C^+ NK cells is shown in Supplemental Fig. 14. Source data are provided as a Source Data file.
In contrast to K562 cell lines which are targets for human NK cells, RMA-S cells (a TAP-deficient mouse cell line)[48] are inert to human NK cells and thus will not activate NK cells absent engagement of an activating receptor on the NK cells. […] We performed additional NK cell activation assays with RMA-S/HLA-E cells (Fig. 4B).
All analyses of human data were carried out in compliance with the relevant ethical regulations. Healthy blood donors gave informed consent at DRK Blutspendedienst Nord-Ost, Dresden, Germany, and buffy coats were obtained as approved by Charité ethics committee (EA4/059/17). PBMCs were isolated from human CMV-seropositive buffy coats by density centrifugation over Ficoll Paque Plus (GE Healthcare) and screened for the presence of NKG2C^+ NK cell expansions by flow cytometry to have sufficient frequencies of single-positive cells for parallel assessment of activation and inhibition via HLA-E[47]. Total NK cells from donors with NKG2C^+ expansions (>10% NKG2A^-/NKG2C^+ NK cells) were enriched with CD56 microbeads (Miltenyi Biotec) and cryopreserved in FBS with 10% v/v DMSO. After thawing, NK cells were washed with complete medium, stained with antibodies and Fixable Viability Dye eFluor 780 (Thermo Fisher) for 15 min at 4 °C in PBS, sorted as viable CD56^+ CD3^− cells, and rested in complete media overnight. […] Brefeldin A and Monensin (BD Biosciences) were added after a 1 h culture period. After an additional 5 h, the stimulation was stopped by centrifugation at 4 °C. Cells underwent surface staining, followed by fixation and intracellular staining using Inside Stain Kit (Miltenyi Biotec). Samples were analyzed by flow cytometry on an LSR Fortessa (BD Biosciences). Inhibition of NKG2A^+ NK cells and activation of NKG2C^+ NK cells was assessed by gating on the respective single-positive populations (Supplemental Fig. 14). Antibodies are listed in Supplemental Table 1: anti-human CD56 PE/Dazzle 594 (1:200 dilution), CD3 APC-eFluor 780 (1:50 dilution), anti-human CD159a (NKG2A) Biotin REAfinity (1:50 dilution), anti-human CD159c (NKG2C) PE REAfinity (1:100 dilution), anti-human CD107a (LAMP-1) Alexa Fluor 488 (1:400 dilution), anti-human IFN-γ PE-Vio 770 REAfinity (1:50 dilution), anti-human TNF-α Brilliant Violet 605 (1:50 dilution), anti-human CCL3 (MIP-1α) REAfinity (1:25 dilution).

[2] = system: HLA-E; experiment: Prometheus differential scanning fluorimetry of HLA-E with peptide; format: binding, human; details: refolded HLA-E*01:03/β2M 9 μg, 50x peptide to MHC ratio, high sensitivity capillary, 1 °C per minute 20-95 °C, first inflection point; DMSO control 33.8
Description: Differential scanning fluorimetry (DSF) experiments were performed with a Prometheus NanoTemper NT.48 (Munich, Germany) to measure protein stability, using intrinsic tryptophan fluorescence.
For these experiments, refolded empty HLA-E was generated. Human β2M plus a poly-histidine tag and HLA-E*01:03 extracellular α1, α2, and α3 domains plus an AviTag biotinylation tag were separately codon optimized for E. coli and cloned into the bacterial expression vector pET28a. Inclusion bodies for HLA-E and β2M were made in BL21 E. coli. Inclusion bodies were purified, homogenized, and dissolved, including denaturation in 8 M urea solution. Before refolding, each IB was mixed with an equal volume of Gdn-Cl solution (6 M Guanidine HCl, 500 mM Tris, 2 mM EDTA, 100 mM NaCl) and incubated overnight at 37 °C. β2M was injected dropwise with a 27-gauge needle into refolding buffer (100 mM pH 8.3 Tris, 400 mM L-arginine hydrochloride, 2 mM EDTA, 0.5 mM oxidized glutathione, 5 mM reduced glutathione, 0.2 mM PMSF) and incubated, stirring gently, at 4 °C for 1 h, after which an equal mass of HLA-E heavy chain was similarly injected. This solution incubated at 4 °C overnight, followed by two days of dialysis in 10 mM Tris + 50 mM NaCl. Protein was concentrated in 10 kDa molecular weight cutoff centrifugal concentrators and purified by size exclusion chromatography on an AKTAPURE FPLC (GE Healthcare, Chicago IL), using an S200 column followed by a S75 column.
Individual DSF reactions were set up with 9 μg of MHC and 100×, 50×, or 10× peptide to MHC ratio by molarity (peptides from GenScript). The final reaction volume was 20 μL and reaction mixtures were incubated at room temperature for 20–30 min.
Prometheus excitation power was set such that raw fluorescence counts were between 8000–15000 for each sample. Samples were heated at 1 °C per minute, from 20–95 °C. DSF measurements were taken in duplicate with high-sensitivity and standard capillaries. Melting temperatures were similar for a given peptide across conditions, and representative data from 50x ratio in high sensitivity capillary are presented. A secondary inflection point around 60 °C in most melts is consistent with melting of β2M[76]. […]
Supplemental Figure 9. Differential scanning fluorimetry data generated via Prometheus NanoTemper for predicted peptides with HLA-E. a) Raw 350/330 nm ratios and first derivative for samples. The second inflection point is consistent with β2M unfolding. b) Summary of Tm values for the first inflection point called by Prometheus software for these samples. […]

Row | Sequence | NKG2C-mediated NK cell activation [1] | Tm [2] [°C]
1 | VNPGRSLFL [BFAR263-271, human peptide from Bifunctional apoptosis regulator] | activation similar to the weaker positive control ([…]) or between the two positive controls | 38.5
2 | VMAPRTLFL [positive control] | most potent activating peptide | 51.5
